# How the values were obtained:
# Artemia salina = test: Brine shrimp lethality; format: in vivo; conditions: for % mortality / dead / live: 10 nauplii, 24 hrs
# blaCTX-M15 = blaCTX-M15 (Escherichia coli O25b:H4, UniProt A0A5R8T042); test: Beta-lactamase inhibition assay; format: biochemical, Salmonella typhi; conditions: for BL inhibitory activity: nitrocefin, 490 nm
# Sequence of blaCTX-M15 (A0A5R8T042 29-291): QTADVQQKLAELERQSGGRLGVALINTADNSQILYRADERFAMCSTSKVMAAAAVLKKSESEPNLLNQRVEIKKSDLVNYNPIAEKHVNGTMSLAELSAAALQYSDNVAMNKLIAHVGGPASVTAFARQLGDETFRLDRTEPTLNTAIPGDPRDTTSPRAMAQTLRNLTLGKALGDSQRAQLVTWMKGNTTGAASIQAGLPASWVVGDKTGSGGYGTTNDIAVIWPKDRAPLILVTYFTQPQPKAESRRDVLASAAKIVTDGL
smiles,measurement,setting,value
COc1cccc2c1C(=O)c1c(O)c3c(c(O)c1C2=O)C[C@@](O)(C(=O)CO)C[C@@H]3O[C@H]1C[C@H](N)[C@H](O)[C@H](C)O1 [Doxorubicin],% mortality,Artemia salina; 25 μg/ml,10%
same,dead,Artemia salina; 25 μg/ml,1
same,live,Artemia salina; 25 μg/ml,9
same,% mortality,Artemia salina; 50 μg/ml,20%
same,dead,Artemia salina; 50 μg/ml,2
same,live,Artemia salina; 50 μg/ml,8
same,% mortality,Artemia salina; 75 μg/ml,20%
same,dead,Artemia salina; 75 μg/ml,2
same,live,Artemia salina; 75 μg/ml,8
same,% mortality,Artemia salina; 100 μg/ml,30%
same,dead,Artemia salina; 100 μg/ml,3
same,live,Artemia salina; 100 μg/ml,7
same,LD50,"Artemia salina; brine shrimp, tested 25-100 μg/ml",187 µg/mL
"O=C(O)[C@H]1/C(=C/CO)O[C@@H]2CC(=O)N21 [abcam Clavulanic acid, Clavulanic acid]",Ki,blaCTX-M15,38.9 µM
same,BL inhibitory activity,blaCTX-M15; concentration 0.03 ug/ml,0.9345
same,BL inhibitory activity,blaCTX-M15; concentration 0.09 ug/ml,0.8498
same,BL inhibitory activity,blaCTX-M15; concentration 1 ug/ml,0.753
same,BL inhibitory activity,blaCTX-M15; concentration 5 ug/ml,0.623
same,BL inhibitory activity,blaCTX-M15; concentration 10 ug/ml,0.53
same,BL inhibitory activity,blaCTX-M15; concentration 50 ug/ml,0.239
same,BL inhibitory activity,blaCTX-M15; concentration 100 ug/ml,0.09
same,BL inhibitory activity,blaCTX-M15; concentration 150 ug/ml,0.02
same,BL inhibitory activity,blaCTX-M15; concentration 200 ug/ml,0.015
